Active and inactive are the calls of the source. The calls are words filed in the database; no cut-off is given here.
Tests used:
MCF7 = assay: Antiproliferative activity against human MCF7 cells assessed as reduction in cell viability after 72 hrs by SRB assay; format: functional, cell-based; conditions: MCF7, 72 h
MDA-MB-231 [1] = assay: Cell cycle arrest in human MDA-MB-231 cells assessed as accumulation at G2/M phase incubated for 24 hrs by propidium iodide staining based flow cytometric analysis; format: functional
A549 = assay: Antiproliferative activity against human A549 cells assessed as reduction in cell viability after 72 hrs by SRB assay; format: functional, cell-based; conditions: A549, 72 h
Tubulin (Homo sapiens) = Tubulin (Homo sapiens) (UniProt P68371+Q9H4B7+P0DPH7+P68366+Q13509+Q71U36+P04350+Q3ZCM7+P07437+P68363+Q9BQE3+Q6PEY2+Q13885+Q9BVA1+Q9BUF5); assay: Induction of microtubule depolymerization in human MDA-MB-231 cells assessed as spindle formation incubated for 24 hrs by immunofluorescence staining based confocal microscopic analysis; format: cell-based
[2] = Antiproliferative activity against human KB-VIN cells assessed as reduction in cell viability after 72 hrs by SRB assay; format: functional, cell-based; conditions: KBVIN
MDA-MB-231 [3] = assay: Antiproliferative activity against human MDA-MB-231 cells assessed as reduction in cell viability after 72 hrs by SRB assay; format: functional, cell-based; conditions: MDA-MB-231, 72 h
KB = assay: Antiproliferative activity against human KB cells assessed as reduction in cell viability after 72 hrs by SRB assay; format: functional, cell-based

Row | IC50 (MCF7) [nM] | IC50 (A549) [nM] | Activity (Tubulin (Homo sapiens)) | IC50 (MDA-MB-231 [3]) [nM] | IC50 (KB) [nM] | Structure (SMILES) | Activity (MDA-MB-231 [1]) | IC50 [2] [nM]
1 | 740 | 640 | inactive | 820 | 820 | COc1cc2occ(-c3csc4ccccc34)c(=O)c2c(OC)c1OC | Dose-Dependent Effect | 510
2 | 890 | 580 | Active | 800 | 640 | O=C(/C=C/c1csc2ccccc12)c1c(O)ccc2ccccc12 | Dose-Dependent Effect | 480
3 | – | – | Active | – | – | COc1ccc(/C=C\c2cc(OC)c(OC)c(OC)c2)cc1O | Dose-Dependent Effect | –
4 | 750 | 590 | inactive | 800 | 610 | COc1cc2c(c(OC)c1OC)O/C(=C\c1csc3ccccc13)C2=O | Dose-Dependent Effect | 480
